Values joined by “and” are separate entries in the source; they are usually repeats but may differ in a detail not shown here. Equal values may be shown once.
Tests used:
Details in all cases: incubation time: 72 h
SK-BR-3 [1] = experiment: normalised viability (% of control), CellTiter-Blue; higher = more viable cells (about 100 = DMSO control)
Procedure, shortened: (§1)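 Breast cancer cell lines in 20 µl suspension were seeded onto 384-well plates pre-loaded with compound dissolved in 5 µl medium, then incubated 72 h. CellTiter-Blue reagent (2.5 µl) was added for 2 h at 37 °C and fluorescence read at 560/590 nm. Each plate was normalised to vehicle (100) and a positive kill control (0), with Z'-factor quality control. The value is normalised viability at one listed concentration of the series.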

HDQ-P1 = experiment: as above
Procedure, shortened: as §1

MDA-MB-231 [2] = experiment: as above
Procedure, shortened: as §1

MDA-MB-468 [3] = experiment: as above
Procedure, shortened: as §1

HCC1143 = experiment: as above
Procedure, shortened: as §1

MFM-223 = experiment: as above
Procedure, shortened: as §1

HCC1599 [4] = experiment: as above
Procedure, shortened: as §1

Hs578T = experiment: as above
Procedure, shortened: as §1

BT-549 = experiment: as above
Procedure, shortened: as §1

CAL-85-1 = experiment: as above
Procedure, shortened: as §1

CAL-148 = experiment: as above
Procedure, shortened: as §1

MDA-MB-436 = experiment: as above
Procedure, shortened: as §1

CAL-51 = experiment: as above
Procedure, shortened: as §1

MDA-MB-453 = experiment: as above
Procedure, shortened: as §1

BT-474 = experiment: as above
Procedure, shortened: as §1

DU-4475 = experiment: as above
Procedure, shortened: as §1

HCC1937 = experiment: as above
Procedure, shortened: as §1

CAL-120 = experiment: as above
Procedure, shortened: as §1

SK-BR-3 [5] = experiment: drug sensitivity score (DSS), CellTiter-Glo (DSS (AUC-based score)); higher = stronger drug effect (viability inhibition or cytotoxicity); extreme values may be limits of the assay
Procedure, shortened: (§2)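 Plates with 384 wells held compound at 5 concentrations in 10-fold steps over a 10,000-fold range specific to each compound. Breast cancer cell lines were added in 20 µl suspension and incubated 72 h, then read for CellTox Green and CellTiter-Glo signals, with each plate normalised to 0.1 % DMSO and a positive kill control. The drug sensitivity score is based on the area under the fitted dose-response curve.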

MDA-MB-231 [6] = experiment: as above
Procedure, shortened: as §2

MDA-MB-468 [7] = experiment: as above
Procedure, shortened: as §2

HCC1599 [8] = experiment: as above
Procedure, shortened: as §2

O=C(c1cc(Cc2n[nH]c(=O)c3ccccc23)ccc1F)N1CCN(C(=O)C2CC2)CC1 [Olaparib]
normalised viability [%]
Details | 3 nM | 10 nM | 30 nM | 100 nM | 1000 nM | 10000 nM
BT-474 | – | 109 | – | – | 104 | 98.2
BT-549 | – | 95 | – | – | 90.8 | 84.9
CAL-51 | 107 | – | 98.5 | 97.7 | – | –
CAL-85-1 | 87.7 | – | 74 | 90.5 | – | –
CAL-120 | – | 78.7 | – | – | 80.5 | 68.6
CAL-148 | 76.5 | – | 87.8 | 83.3 | – | –
DU-4475 | 95.6 | – | 89.2 | 91.6 | – | –
HCC1143 | – | 81.6 | – | – | 92.9 | 80.2
HCC1599 [4] | – | 93.8 | – | – | 114 | 94.2
HCC1937 | – | 78.5 | – | – | 58.4 | 51.2
HDQ-P1 | 95.6 | – | 102 | 103 | – | –
Hs578T | – | 110 | – | – | 109 | 75.7
MDA-MB-231 [2] | – | 89.7 | – | – | 88 | 72.2
MDA-MB-436 | – | 113 | – | – | 105 | 95.6
MDA-MB-453 | 109 | – | 92.3 | 100 | – | –
MDA-MB-468 [3] | – | 102 | – | – | 89.8 | 65.8
MFM-223 | – | 98.3 | – | – | 98.8 | 114
SK-BR-3 [1] | – | 103 | – | – | 93.5 | 82.1

Details | drug sensitivity score
HCC1599 [8] | 0
MDA-MB-231 [6] | 0
MDA-MB-468 [7] | 2.57
SK-BR-3 [5] | 0

CO[C@H](C(=O)[C@@H](O)[C@@H](C)O)[C@@H]1Cc2cc3cc(O[C@H]4C[C@@H](O[C@@H]5C[C@@H](O)[C@H](O)[C@@H](C)O5)[C@H](O)[C@@H](C)O4)c(C)c(O)c3c(O)c2C(=O)[C@H]1O[C@H]1C[C@@H](O[C@@H]2C[C@@H](O)[C@@H](O[C@@H]3C[C@](C)(O)[C@H](O)[C@@H](C)O3)[C@@H](C)O2)[C@H](O)[C@@H](C)O1 [Plicamycin]
Details | normalised viability
BT-474, 10 nM | 122% and 103%
BT-474, 1000 nM | 36% and 23.9%
BT-474, 10000 nM | 22.1% and 26.4%
BT-549, 10 nM | 94.7% and 83.2%
BT-549, 1000 nM | 6.74% and 5.38%
BT-549, 10000 nM | 6.68% and 5.22%
CAL-51, 3 nM | 99.7% and 119%
CAL-51, 30 nM | 96.1% and 112%
CAL-51, 100 nM | 62.3% and 61.2%
CAL-85-1, 3 nM | 87.3% and 88.3%
CAL-85-1, 30 nM | 89.2% and 83.9%
CAL-85-1, 100 nM | 51.5% and 39.5%
CAL-120, 10 nM | 89.5% and 75.6%
CAL-120, 1000 nM | 13.4% and 10.2%
CAL-120, 10000 nM | 11.9% and 9.12%
CAL-148, 3 nM | 87.7%
CAL-148, 30 nM | 95.3% and 99.5%
CAL-148, 100 nM | 26% and 38.8%
DU-4475, 3 nM | 85.1% and 89.9%
DU-4475, 30 nM | 88.7% and 83.8%
DU-4475, 100 nM | 1.46% and 0.7%
HCC1143, 10 nM | 84.9% and 62.2%
HCC1143, 1000 nM | 22% and 14.7%
HCC1143, 10000 nM | 16.7% and 14.6%
HCC1599 [4], 10 nM | 89.6% and 108%
HCC1599 [4], 1000 nM | 22.3% and 22.2%
HCC1599 [4], 10000 nM | 15.2% and 19.4%
HCC1937, 10 nM | 85.8% and 78.5%
HCC1937, 1000 nM | 22.1% and 19.5%
HCC1937, 10000 nM | 29.1% and 20.6%
HDQ-P1, 30 nM | 104% and 80.5%
HDQ-P1, 100 nM | 68.5% and 44.6%
Hs578T, 10 nM | 100% and 82.1%
Hs578T, 1000 nM | 3.62% and 2.96%
Hs578T, 10000 nM | 2.27% and 1.73%
MDA-MB-231 [2], 10 nM | 82.1% and 88.4%
MDA-MB-231 [2], 1000 nM | 9.81% and 8.56%
MDA-MB-231 [2], 10000 nM | 8.03% and 7.03%
MDA-MB-436, 10 nM | 95.2% and 75.5%
MDA-MB-436, 1000 nM | 25.8% and 19.9%
MDA-MB-436, 10000 nM | 21.7% and 13.9%
MDA-MB-453, 3 nM | 109% and 113%
MDA-MB-453, 30 nM | 99.8% and 92.6%
MDA-MB-453, 100 nM | 48.3% and 34.6%
MDA-MB-468 [3], 10 nM | 91.4% and 92.1%
MDA-MB-468 [3], 1000 nM | 3.16% and 3.32%
MDA-MB-468 [3], 10000 nM | 2.7% and 3.47%
MFM-223, 10 nM | 103% and 87.9%
MFM-223, 1000 nM | 20.3% and 16.5%
MFM-223, 10000 nM | 9.96% and 7.4%
SK-BR-3 [1], 10 nM | 111% and 88.8%
SK-BR-3 [1], 1000 nM | 6.61% and 5.62%
SK-BR-3 [1], 10000 nM | 4.44% and 5.25%

Details | drug sensitivity score
HCC1599 [8] | 3.99
MDA-MB-231 [6] | 5.67
MDA-MB-468 [7] | 6.69
SK-BR-3 [5] | 3.86

C[C@]12C=CC(=O)C=C1CC[C@@H]1[C@@H]2C(=O)C[C@@]2(C)[C@H]1CC[C@]2(O)C(=O)CO [Prednisone]
normalised viability [%]
Details | 3 nM | 10 nM | 30 nM | 100 nM | 1000 nM | 10000 nM
BT-474 | – | 133 | – | – | 109 | 111
BT-549 | – | 96.7 | – | – | 107 | 108
CAL-51 | 104 | – | 98.3 | 103 | – | –
CAL-85-1 | 95.8 | – | 102 | 90.9 | – | –
CAL-120 | – | 79.9 | – | – | 79.3 | 96.3
CAL-148 | 94.8 | – | 97.4 | 104 | – | –
DU-4475 | 90.2 | – | 94.9 | 88.4 | – | –
HCC1143 | – | 91 | – | – | 89.1 | 86.8
HCC1599 [4] | – | 102 | – | – | 103 | 94
HCC1937 | – | 95.7 | – | – | 105 | 98.9
HDQ-P1 | 98.3 | – | 110 | 114 | – | –
Hs578T | – | 121 | – | – | 108 | 105
MDA-MB-231 [2] | – | 97 | – | – | 101 | 108
MDA-MB-436 | – | 91.3 | – | – | 70.5 | 109
MDA-MB-453 | 106 | – | 115 | 113 | – | –
MDA-MB-468 [3] | – | 98.6 | – | – | 104 | 98
MFM-223 | – | 91.7 | – | – | 89.7 | 94.8
SK-BR-3 [1] | – | 101 | – | – | 111 | 113

Details | drug sensitivity score
HCC1599 [8] | 0
MDA-MB-231 [6] | 0
MDA-MB-468 [7] | 0
SK-BR-3 [5] | 0

CO[C@H]1C[C@@H]2CC[C@@H](C)[C@@](O)(O2)C(=O)C(=O)N2CCCC[C@H]2C(=O)O[C@H]([C@H](C)C[C@@H]2CC[C@@H](O)[C@H](OC)C2)CC(=O)[C@H](C)/C=C(\C)[C@@H](O)[C@@H](OC)C(=O)[C@H](C)C[C@H](C)/C=C/C=C/C=C/1C [Sirolimus]
normalised viability [%]
Details | 0.3 nM | 1 nM | 3 nM | 10 nM | 100 nM | 1000 nM
BT-474 | – | 74.7 | – | – | 75.1 | 67.5
BT-549 | – | 55.6 | – | – | 57.5 | 45.2
CAL-51 | 80 | – | 45.8 | 34.5 | – | –
CAL-85-1 | 86.1 | – | 58.2 | 66 | – | –
CAL-120 | – | 79.6 | – | – | 53.4 | 47.3
CAL-148 | 96.1 | – | 53.9 | 53.3 | – | –
DU-4475 | 99.1 | – | 61.4 | 65.8 | – | –
HCC1143 | – | 90.3 | – | – | 71.6 | 71.4
HCC1599 [4] | – | 88.4 | – | – | 56.7 | 75.3
HCC1937 | – | 58 | – | – | 46.3 | 59
HDQ-P1 | 88.9 | – | 66.3 | 71.3 | – | –
Hs578T | – | 65.5 | – | – | 53.1 | 51.8
MDA-MB-231 [2] | – | 74 | – | – | 62.8 | 87
MDA-MB-436 | – | 93.3 | – | – | 84.5 | 87.2
MDA-MB-453 | 86.1 | – | 34.2 | 32.2 | – | –
MDA-MB-468 [3] | – | 70.2 | – | – | 65.3 | 69.5
MFM-223 | – | 56.2 | – | – | 47.5 | 47.1
SK-BR-3 [1] | – | 84.8 | – | – | 48.4 | 43

Details | drug sensitivity score
HCC1599 [8] | 0
MDA-MB-231 [6] | 0
MDA-MB-468 [7] | 12.2
SK-BR-3 [5] | 5.69

Source: the supplement of paper PMC4862054
